{"source": "paper PMC12631937", "about": "“Autologous Organoid‐T Cell Co‐Culture Platform for Modeling of Immune‐Mediated Drug‐Induced Liver Injury” (Advanced Science, 2025)", "key": {"[1]": {"test_system": "HLO microarrays (iPSC-derived human liver organoids)", "test": "HLO microarray cytotoxicity, DRAQ7-positive nuclei (dead cells)", "assay_type": "cell-based", "conditions": "168 h, seven-day repeated-dose treatment, Figure 2C, read-out: Cell death (% Draq7+ cells) IC50", "procedure": "HLO microarrays were exposed to seven‐day repeated‐dose treatment of Chlorpromazine and Flucloxacillin across five half‐log‐spaced concentrations, with vehicle‐treated wells serving as controls. Following treatment, cell viability was assessed by quantifying total cellular ATP content using the CellTiter‐Glo assay, while cytotoxicity was determined by counting DRAQ7‐positive nuclei (dead cells) in organoids. Hepatic functionality was further evaluated by measuring albumin secretion in the culture supernatant via ELISA (Figure 2A). Chlorpromazine (Sigma) and Streptomycin (MCE) were dissolved in DMSO, and 5–7 serial dilutions of 200 × stock solutions were prepared alongside corresponding vehicle controls (0.5% DMSO). Aliquots were frozen to ensure consistency across experiments. On the day of treatment, aliquots were thawed and diluted in liver maturation medium to achieve final working concentrations. […] Dose‐response curves and IC50 values were determined by nonlinear regression of log‐transformed compound concentrations (6‐8 point serial dilutions including vehicle) against normalized viability data. […] To contextualize in vitro toxicity data with human exposure levels, Margin of Safety (MOS) values were calculated as the ratio of the in vitro IC50 to the compound's reported clinical maximum plasma concentration (MOS = IC50 / Cmax)."}, "[2]": {"test_system": "HLO microarrays (iPSC-derived human liver organoids)", "test": "cells", "procedure": "HLO microarrays were exposed to seven‐day repeated‐dose treatment of Chlorpromazine and Flucloxacillin across five half‐log‐spaced concentrations, with vehicle‐treated wells serving as controls. Following treatment, cell viability was assessed by quantifying total cellular ATP content using the CellTiter‐Glo assay, while cytotoxicity was determined by counting DRAQ7‐positive nuclei (dead cells) in organoids. Hepatic functionality was further evaluated by measuring albumin secretion in the culture supernatant via ELISA (Figure 2A).\nChlorpromazine (Sigma) and Streptomycin (MCE) were dissolved in DMSO, and 5–7 serial dilutions of 200 × stock solutions were prepared alongside corresponding vehicle controls (0.5% DMSO). Aliquots were frozen to ensure consistency across experiments. On the day of treatment, aliquots were thawed and diluted in liver maturation medium to achieve final working concentrations. Flucloxacillin (Sigma) was freshly prepared in liver maturation medium immediately prior to each dosing. HLO microarrays were treated over a 7‐day period, with a single re‐dosing and media refreshment on day 3. The highest concentrations tested for all compounds were 1000 µM.\nCell viability was assessed on day 7 using the CellTiter‐Glo 3D Cell Viability Assay (Promega, Cat. G9682). Luminescence was recorded using a Spectra Max iD3 microplate reader (Molecular Devices) following the manufacturer's recommended settings. Viability data from compound‐treated HLOs were normalized to the corresponding vehicle controls on the same plate.\nDose‐response curves and IC50 values were determined by nonlinear regression of log‐transformed compound concentrations (6‐8 point serial dilutions including vehicle) against normalized viability data. Curve fitting was performed using a variable Hill slope and constraining the top and bottom of the curve to 100 and 0, respectively (GraphPad Prism, GraphPad Software, La Jolla, CA, USA). To contextualize in vitro toxicity data with human exposure levels, Margin of Safety (MOS) values were calculated as the ratio of the in vitro IC50 to the compound's reported clinical maximum plasma concentration (MOS = IC50 / Cmax)."}, "[3]": {"conditions": "reported clinical Cmax; cited from earlier work"}, "[4]": {"test_system": "HLO microarrays (iPSC-derived human liver organoids)", "test": "Albumin secretion of HLO microarrays in culture supernatant (ELISA)", "assay_type": "cell-based", "conditions": "168 h, seven-day repeated-dose treatment, Figure 2E, read-out: Albumin release (% of control) IC50", "description": "Hepatic functionality was further evaluated by measuring albumin secretion in the culture supernatant via ELISA (Figure 2A). […] Aliquots were frozen to ensure consistency across experiments. On the day of treatment, aliquots were thawed and diluted in liver maturation medium to achieve final working concentrations. Flucloxacillin (Sigma) was freshly prepared in liver maturation medium immediately prior to each dosing."}, "[5]": {"test_system": "HLOs co-cultured with autologous Flucloxacillin-primed CD8+ T cells", "test": "Autologous HLO - CD8+ T cell co-culture, immune-mediated hepatocyte injury", "assay_type": "cell-based, human", "procedure": "To model immune‐mediated liver injury, Flucloxacillin‐primed CD8⁺ T cells from three HLA‐B*57:01 carrier and three HLA‐B*57:01 non‐carrier donors were co‐cultured with autologous HLOs pre‐treated with Flucloxacillin (Figure 5A). Co‐cultures with unprimed CD8⁺ T cells served as controls to exclude non‐specific T cell reactivity. HLOs were generated from iPSC lines derived from donor PBMCs and exposed to 100 µM Flucloxacillin for 72 h before initiating co‐culture. On day 23 of maturation, HLOs were co‐cultured with unprimed or Flux‐primed CD8⁺ T cells to assess immune‐mediated hepatocyte injury. Liver damage was quantified using immunofluorescence‐based detection of DRAQ7⁺ dead cells and measurement of cytokeratin‐18 (CK‐18) release, a highly specific biomarker of early‐stage DILI. CK‐18, an intermediate filament protein expressed in hepatocytes and cholangiocytes but absent in immune cells, provided greater specificity for hepatocyte death than traditional markers such as LDH or ATP.\nCulture supernatants were analyzed to quantify albumin and CK18 levels using sandwich ELISA kits (Albumin, Abcam, and M65 EpiDeath CK18Diapharma) according to manufacturer's protocols. TNFα and Granzyme B secretion were measured using the Luminex Discovery Assay kit (R&D Systems/Biotechne) according to the manufacturer's protocol.\nFollowing initial 12 day priming as described above, CD8^+ T cells were stained with CFSE (5 µM, Fisher Scientific, Catalog No. 11‐0699‐42) and resuspended in an optimized co‐culture media. This media consisted of a 1:1 mixture of complete RPMI (RPMI + 1% penicillin/streptomycin and 150 IU mL^−1 IL‐2) and modified liver maturation media (excluding HGF, dexamethasone and hydrocortisone) supplemented with 10 IU mL^−1 IL‐7 and 10 IU/ml IL‐15. Labeled CD8⁺ T cells were added to mature (day 23) HLO microarray cultures at effector‐to‐target (E:T) ratios of 1:1 and 1:5. These ratios were chosen to reflect the localized enrichment of cytotoxic lymphocytes observed during immune‐mediated liver injury, including periportal CD8⁺ T cell infiltration in flucloxacillin‐induced DILI (PMID: 24 731 753).^[ [14] ^] Prior to co‐culture, HLO were pretreated with 100 µM Flucloxacillin for 72 h. The co‐culture was maintained for 72 h with media exchanges performed every 24 h. When indicated, T cell activation was induced using anti‐CD3 (1 µg ml^−1, BioLegend) and anti‐CD28 (1 µg ml^−1, BioLegend) antibodies."}, "CD8+ T cells": {"test_system": "CD8+ T cells", "test": "Monocyte-derived dendritic cell (mDC) priming assay of naïve CD8+ T cells, flow cytometry", "assay_type": "cell-based, human", "description": "Peripheral blood samples were collected from four HLA‐B*57:01 carriers and four HLA‐B*57:01 non‐carrier donors (Figure 4B). To generate antigen‐specific CD8⁺ T cells, we employed a monocyte‐derived dendritic cell (mDC) priming assay (Figure 4A). Naïve CD8⁺ T cells and monocytes were isolated from peripheral blood mononuclear cells (PBMCs) of each donor. mDCs were differentiated using IL‐4 and GM‐CSF, followed by maturation and activation with LPS and IFN‐γ. Mature mDCs were then loaded with Flucloxacillin or media alone and used to prime naïve CD8⁺ T cells. After priming, CD8⁺ T cells (i.e., Flucloxacillin‐primed CD8^+ T cells) were expanded in the presence of a low dose of IL‐15 for 10 days, followed by CFSE labeling and re‐stimulation with freshly loaded mDCs under the same conditions. Flow cytometry was used to assess CD8⁺ T cell maturation, proliferation, and post‐priming activation. […] T cell antigen‐specific activation efficacy was evaluated using multi‐color flow cytometry with Diva and FlowJo (BD software). T cell proliferation and activation were assessed using CFSE (1 µM, ThermoFisher) for proliferation, Human TruStain FcX for Fc receptor blocking, and a panel of antibodies including CD3 (clone UCHT1), CD8 (clone 3B5), CD4 (clone RPA‐T4), CD45RO (clone UCHL1), CD107a (clone H4A3), HLA‐DR (clone TU36), CD137 (clone 4B4), and CD69 (clone FN50). […]"}, "[6]": {"conditions": "Homo sapiens, 168 h, read-out: Cell Viability (% of control) IC50, ATP-based, seven-day repeated-dose treatment, Figure 2D"}, "[7]": {"conditions": "Homo sapiens, read-out: average IC50, average across three independent iPSC-derived HLO lines (donors), Figure S2"}}}
{"compound": "CN(C)CCCN1c2ccccc2Sc2ccc(Cl)cc21", "note": "[Chlorpromazine]", "values": [{"measurement": "IC50", "setting": "[1]", "value": 19.7, "unit": "µM"}, {"measurement": "IC50", "setting": "[2]; [6]", "value": 14.5, "unit": "µM"}, {"measurement": "IC50", "setting": "[2]; [7]", "value": 11.1, "unit": "µM"}, {"measurement": "margin of safety (MOS = IC50 / Cmax)", "setting": "[2]; human, 7 days", "value": "≈ 15.3"}, {"measurement": "IC50", "setting": "[2]; read-out: Cell Viability (% of control) IC50, ATP-based, seven-day repeated-dose treatment, Figure 2D", "value": 14.4, "unit": "µM"}, {"measurement": "Cmax", "setting": "[3]", "value": "~0.94", "unit": "µM"}, {"measurement": "IC50", "setting": "[4]", "value": 6.36, "unit": "µM"}]}
{"compound": "Cc1onc(-c2c(F)cccc2Cl)c1C(=O)N[C@@H]1C(=O)N2[C@@H]1SC(C)(C)[C@@H]2C(=O)O", "note": "[Flucloxacillin]", "values": [{"measurement": "secretion of TNF-α and Granzyme B", "setting": "[5]; primed CD8+ T cells from HLA-B*57:01 carrier donors 534 and 622", "value": "increased secretion"}, {"measurement": "CK-18 release", "setting": "[5]; primed CD8+ T cells from HLA-B*57:01 carrier donors 534 and 622, HLOs pre-treated with 100 µM for 72 h", "value": "significantly elevated"}, {"measurement": "increase in DRAQ7+ cell death compared to T cell-free controls", "setting": "[5]; primed CD8+ T cells from HLA-B*57:01 carrier donors 534 and 622, HLOs pre-treated with 100 µM for 72 h, 72 h co-culture", "value": 4, "unit": "fold"}, {"measurement": "hepatocyte death or CK-18 release", "setting": "[5]; primed T cells from weak-responder HLA-B*57:01 carriers and all non-carrier donors", "value": "failed to induce hepatocyte death"}, {"measurement": "IC50", "setting": "[1]", "value": "> 1000", "unit": "µM"}, {"measurement": "cytotoxicity at clinically relevant exposures", "setting": "[2]", "value": "no cytotoxicity"}, {"measurement": "IC50", "setting": "[2]; [6]", "value": "> 1000", "unit": "µM"}, {"measurement": "Cmax", "setting": "[3]", "value": "~31", "unit": "µM"}, {"measurement": "IC50", "setting": "[4]", "value": "> 1000", "unit": "µM"}, {"measurement": "CD8+ T cell response to priming", "setting": "CD8+ T cells; HLA-B*57:01 non-carrier donors", "value": "did not exhibit a comparable response"}, {"measurement": "increase in T cell proliferation (CFSElow cells) and activation marker expression relative to media-alone priming", "setting": "CD8+ T cells; two of four HLA-B*57:01-positive donors (robust responders), DCs pulsed with 1000 µM", "value": "over 2 fold"}]}
{"compound": "[H]/N=C(/N)N[C@H]1[C@H](O)[C@@H](O)[C@H](O[C@@H]2O[C@@H](C)[C@](O)(C=O)[C@H]2O[C@@H]2O[C@@H](CO)[C@H](O)[C@@H](O)[C@@H]2NC)[C@@H](N/C(N)=N\\[H])[C@@H]1O", "note": "[Streptomycin]", "values": [{"measurement": "cytotoxicity at clinically relevant exposures", "setting": "[2]", "value": "no cytotoxicity"}, {"measurement": "IC50", "setting": "[2]; [7]", "value": 341, "unit": "µM"}, {"measurement": "Cmax", "setting": "[3]", "value": "~72.2", "unit": "µM"}]}
